The compounds below were run against T1, RORγ (Homo sapiens, UniProt P51449) (assay: RORγ GAL4 reporter gene assay). Conditions: mean pIC50, inhibition of RORγ (GAL4-RORγ-LBD) in 293FT cells, luciferase readout, overnight incubation.
T1 sequence (P51449 269-508 limits assumed): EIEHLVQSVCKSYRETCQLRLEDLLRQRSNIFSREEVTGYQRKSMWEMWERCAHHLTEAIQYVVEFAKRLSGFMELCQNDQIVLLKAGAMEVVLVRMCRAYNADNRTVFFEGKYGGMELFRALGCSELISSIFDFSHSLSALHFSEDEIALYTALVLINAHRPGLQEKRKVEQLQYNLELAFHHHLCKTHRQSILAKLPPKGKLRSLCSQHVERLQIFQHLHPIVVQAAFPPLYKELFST

IC50 | SMILES
≤ 0.1 µM | COC(c1ccc(NC(=O)Cc2ccc(S(=O)(=O)CC3CC3)cc2)cc1)(C(F)(F)F)C(F)(F)F [Example 54, 2-(4-((cyclopropylmethyl)sulfonyl)phenyl)-N-(4-(1,1,1,3,3,3-hexafluoro-2-methoxypropan-2-yl)phenyl)acetamide]
≤ 1 µM | COc1cc(NC(=O)Cc2ccc(S(=O)(=O)CC3CC3)cc2)ccc1C(O)(C(F)(F)F)C(F)(F)F [Example 56, 2-(4-((cyclopropylmethyl)sulfonyl)phenyl)-N-(4-(1,1,1,3,3,3-hexafluoro-2-hydroxypropan-2-yl)-3-methoxyphenyl)acetamide]
≤ 1 µM | O=C(Cc1ccc(S(=O)(=O)CC2CC2)cc1)Nc1ccc(C(OCCC2CC2)(C(F)(F)F)C(F)(F)F)cc1 [Example 58, N-(4-(2-(2-cyclopropylethoxy)-1,1,1,3,3,3-hexafluoropropan-2-yl)phenyl)-2-(4-((cyclopropylmethyl)sulfonyl)phenyl)acetamide]
≤ 0.1 µM | O=C(Cc1ccc(S(=O)(=O)CC2CC2)cc1)Nc1ccc(C(OCc2ccccc2)(C(F)(F)F)C(F)(F)F)cc1 [Example 59, N-(4-(2-(benzyloxy)-1,1,1,3,3,3-hexafluoropropan-2-yl)phenyl)-2-(4-((cyclopropylmethyl)sulfonyl)phenyl)acetamide]
≤ 0.01 µM | CCCOC(c1ccc(NC(=O)Cc2ccc(S(=O)(=O)CC3CC3)cc2)cc1)(C(F)(F)F)C(F)(F)F [Example 60, 2-(4-((cyclopropylmethyl)sulfonyl)phenyl)-N-(4-(1,1,1,3,3,3-hexafluoro-2-propoxypropan-2-yl)phenyl)acetamide]
≤ 0.1 µM | CCCOC(c1ccc(NC(=O)Cc2ccc(S(=O)(=O)NC3CC3)cc2)cc1)(C(F)(F)F)C(F)(F)F [Example 61, 2-(4-(N-cyclopropylsulfamoyl)phenyl)-N-(4-(1,1,1,3,3,3-hexafluoro-2-propoxypropan-2-yl)phenyl)acetamide]

Second part, the compound before the results:

SMILES | IC50
COc1cc(C(O)(C(F)(F)F)C(F)(F)F)ccc1NC(=O)Cc1ccc(S(=O)(=O)CC2CC2)cc1 [Example 55, 2-(4-((cyclopropylmethyl)sulfonyl)phenyl)-N-(4-(1,1,1,3,3,3-hexafluoro-2-hydroxypropan-2-yl)-2-methoxyphenyl)acetamide] | ≤ 0.1 µM
Nc1cc(C(O)(C(F)(F)F)C(F)(F)F)ccc1NC(=O)Cc1ccc(S(=O)(=O)CC2CC2)cc1 [Example 57, N-(2-amino-4-(1,1,1,3,3,3-hexafluoro-2-hydroxypropan-2-yl)phenyl)-2-(4-((cyclopropylmethyl)sulfonyl)phenyl)acetamide] | ≤ 1 µM
O=C(Cc1ccc(S(=O)(=O)CC2CC2)cc1)Nc1ccc(C(O)(C(F)(F)F)C(F)(F)F)c(Cl)c1 [Example 62, N-(3-chloro-4-(1,1,1,3,3,3-hexafluoro-2-hydroxypropan-2-yl)phenyl)-2-(4-((cyclopropylmethyl)sulfonyl)phenyl)acetamide] | ≤ 0.1 µM
CCCC(O)(c1ccc(NC(=O)Cc2ccc(S(=O)(=O)CC)cc2)cc1)C(F)(F)F (stereo not shown) [Example 63, 2-(4-(ethylsulfonyl)phenyl)-N-(4-(1,1,1-trifluoro-2-hydroxypentan-2-yl)phenyl)acetamide] | ≤ 1 µM
CCCCC(O)(c1ccc(NC(=O)Cc2ccc(S(=O)(=O)CC3CC3)cc2)cc1)C(F)(F)F (stereo not shown) [Example 64, 2-(4-((cyclopropylmethyl)sulfonyl)phenyl)-N-(4-(1,1,1-trifluoro-2-hydroxyhexan-2-yl)phenyl)acetamide] | ≤ 0.01 µM
CCS(=O)(=O)c1ccc(CC(=O)Nc2ccc(C(O)(C(C)C)C(F)(F)F)cc2)cc1 (stereo not shown) [Example 65, 2-(4-(ethylsulfonyl)phenyl)-N-(4-(1,1,1-trifluoro-2-hydroxy-3-methylbutan-2-yl)phenyl)acetamide] | ≤ 1 µM
CCS(=O)(=O)c1ccc(CC(=O)Nc2ccc(C(O)(CC(C)C)C(F)(F)F)cc2)cc1 (stereo not shown) [Example 66, 2-(4-(ethylsulfonyl)phenyl)-N-(4-(1,1,1-trifluoro-2-hydroxy-4-methylpentan-2-yl)phenyl)acetamide] | ≤ 0.1 µM
